The values below come from ChEMBL document CHEMBL1201862, “PubChem BioAssay data set” (2004).

Each structure is given as a SMILES string. Active and inactive are the calls of the source.

The nature of test [1]: ATP-based viability loss in HEK293T cells – cell-based, CellTiter-Glo luminescence, dry powder, set 2, cytotoxicity control, dose response (AID 720595). It is filed as functional. The following applies: HEK293. Background: Cellular ATP, detected with luciferase, serves as a proxy for viable cell number.
In test [2] the target is T1, CAAX prenyl protease 1 (Saccharomyces cerevisiae S288c, UniProt P47154).
T1 sequence (P47154 whole entry): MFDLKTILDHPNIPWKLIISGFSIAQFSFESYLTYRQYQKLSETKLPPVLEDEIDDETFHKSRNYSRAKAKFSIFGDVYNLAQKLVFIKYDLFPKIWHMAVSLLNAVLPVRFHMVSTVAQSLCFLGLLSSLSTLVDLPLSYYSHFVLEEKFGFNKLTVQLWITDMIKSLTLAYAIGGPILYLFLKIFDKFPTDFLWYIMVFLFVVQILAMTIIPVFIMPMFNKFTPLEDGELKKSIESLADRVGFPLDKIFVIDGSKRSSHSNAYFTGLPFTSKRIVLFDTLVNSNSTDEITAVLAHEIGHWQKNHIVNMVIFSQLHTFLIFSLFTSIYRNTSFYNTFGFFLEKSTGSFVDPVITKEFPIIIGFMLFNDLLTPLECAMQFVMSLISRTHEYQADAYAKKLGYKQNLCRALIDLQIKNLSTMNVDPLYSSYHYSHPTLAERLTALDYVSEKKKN
The test is described as follows: yeast CAAX protease Ste24 inhibition – biochemical, S. cerevisiae, plate reader, cherry-pick, dose response (AID 488815).

Test [3] has as its system BJ. The test is described as follows: BJ-TERT fibroblast viability loss – cell-based, RAS-independent, luminescence, dose response (AID 1933). It is filed as functional. The following applies: Homo sapiens.
Test [4] relates to BJ. In words: growth inhibition of engineered Ras-driven BJ cells – cell-based, alamar blue fluorescence, cherrypicked samples, dose response (AID 2631).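 Also: confirmatory dose-response assay in RAS-dependent BJ fibroblasts engineered with TERT, LT and ST, with cytotoxicity read by fluorescence.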 It is filed as functional. As to conditions: Homo sapiens.
A short description of test [5]: general mammalian cell viability loss – inhibitor set, cherry-pick, set 2, cytotoxicity control for miR-122 modulator project, dose response (AID 720697). It is filed as functional, cell-based.
The nature of test [6]: general mammalian cell viability loss – activator set, cherry-pick, cytotoxicity control for miR-122 modulator project, dose response (AID 720690).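 Also: HEK293T human cells scored for general mammalian cytotoxicity.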 It is filed as functional, cell-based.
In test [7] the target is Misshapen-like kinase 1 (Homo sapiens, UniProt Q8N4C8). It is filed as functional.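 Also: kinome panel screen with MINK as the panel member.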
Test [8] deals with Cell division cycle 7-related protein kinase (Homo sapiens, UniProt O00311). It is filed as functional.
In test [9] the target is T2, Caspase-3 (Homo sapiens, UniProt P42574).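 Also: Dose-response selectivity test against caspase-3 for candidate inhibitors of sentrin-specific proteases (SENPs).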
T2 sequence (P42574 whole entry): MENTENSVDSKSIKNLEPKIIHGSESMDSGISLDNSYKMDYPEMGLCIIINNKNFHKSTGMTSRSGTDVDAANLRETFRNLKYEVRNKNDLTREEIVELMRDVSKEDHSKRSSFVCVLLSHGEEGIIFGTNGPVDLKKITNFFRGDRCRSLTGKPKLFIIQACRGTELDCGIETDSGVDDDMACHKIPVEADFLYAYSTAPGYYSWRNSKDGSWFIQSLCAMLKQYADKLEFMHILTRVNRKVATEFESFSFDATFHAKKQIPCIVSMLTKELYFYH
It is filed as functional.

For test [10], the target named is T3, Sentrin-specific protease 8 (Homo sapiens, UniProt Q96LD8).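 Also: luminescence read-out of SENP8 inhibition, dose-response confirmation following an ultra-high-throughput screen.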
T3 sequence (Q96LD8 whole entry): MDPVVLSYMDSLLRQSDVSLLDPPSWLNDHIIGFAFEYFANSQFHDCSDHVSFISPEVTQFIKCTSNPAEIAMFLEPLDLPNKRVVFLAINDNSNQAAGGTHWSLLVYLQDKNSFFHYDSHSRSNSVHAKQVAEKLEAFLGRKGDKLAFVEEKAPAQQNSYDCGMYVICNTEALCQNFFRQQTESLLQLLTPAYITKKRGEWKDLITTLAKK
It is filed as functional.

Test [11] concerns the target T4, Histone-lysine N-methyltransferase NSD2 (Homo sapiens, UniProt O96028).
T4 sequence (O96028 whole entry): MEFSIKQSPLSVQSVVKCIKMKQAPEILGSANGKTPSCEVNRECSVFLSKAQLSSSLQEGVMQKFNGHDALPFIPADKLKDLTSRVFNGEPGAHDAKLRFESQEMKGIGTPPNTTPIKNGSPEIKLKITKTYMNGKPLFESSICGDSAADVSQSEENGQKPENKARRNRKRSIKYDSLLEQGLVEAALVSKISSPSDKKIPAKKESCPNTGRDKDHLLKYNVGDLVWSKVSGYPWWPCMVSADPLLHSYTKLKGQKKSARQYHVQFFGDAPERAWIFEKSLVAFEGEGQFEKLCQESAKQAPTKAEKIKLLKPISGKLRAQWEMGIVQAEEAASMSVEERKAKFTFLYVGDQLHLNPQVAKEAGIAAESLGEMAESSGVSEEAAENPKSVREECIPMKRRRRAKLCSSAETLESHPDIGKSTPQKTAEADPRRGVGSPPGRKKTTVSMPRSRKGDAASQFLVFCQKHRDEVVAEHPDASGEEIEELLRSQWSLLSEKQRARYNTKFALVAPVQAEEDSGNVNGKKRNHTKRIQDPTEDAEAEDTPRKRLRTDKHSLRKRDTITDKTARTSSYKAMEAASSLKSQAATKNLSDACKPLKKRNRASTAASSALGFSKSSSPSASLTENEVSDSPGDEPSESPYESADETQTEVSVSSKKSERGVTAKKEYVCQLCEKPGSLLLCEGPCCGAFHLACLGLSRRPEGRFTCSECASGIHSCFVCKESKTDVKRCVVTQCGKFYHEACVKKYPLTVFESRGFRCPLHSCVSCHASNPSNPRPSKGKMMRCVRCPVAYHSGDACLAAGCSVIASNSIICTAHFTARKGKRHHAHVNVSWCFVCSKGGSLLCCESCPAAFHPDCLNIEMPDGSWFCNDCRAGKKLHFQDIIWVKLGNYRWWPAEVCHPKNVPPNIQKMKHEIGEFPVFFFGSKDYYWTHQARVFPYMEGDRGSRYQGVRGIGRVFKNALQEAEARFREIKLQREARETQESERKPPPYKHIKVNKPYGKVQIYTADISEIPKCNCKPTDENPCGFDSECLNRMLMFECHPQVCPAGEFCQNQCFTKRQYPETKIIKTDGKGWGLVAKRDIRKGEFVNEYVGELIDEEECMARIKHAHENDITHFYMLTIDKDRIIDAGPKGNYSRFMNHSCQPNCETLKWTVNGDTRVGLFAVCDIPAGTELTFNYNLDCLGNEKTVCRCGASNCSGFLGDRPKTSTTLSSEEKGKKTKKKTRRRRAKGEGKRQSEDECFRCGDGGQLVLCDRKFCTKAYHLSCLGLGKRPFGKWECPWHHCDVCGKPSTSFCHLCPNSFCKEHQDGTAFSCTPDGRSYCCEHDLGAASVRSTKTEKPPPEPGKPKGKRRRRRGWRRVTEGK
It is filed as biochemical.

Cell division cycle 7-related protein kinase, sequence (O00311 whole entry): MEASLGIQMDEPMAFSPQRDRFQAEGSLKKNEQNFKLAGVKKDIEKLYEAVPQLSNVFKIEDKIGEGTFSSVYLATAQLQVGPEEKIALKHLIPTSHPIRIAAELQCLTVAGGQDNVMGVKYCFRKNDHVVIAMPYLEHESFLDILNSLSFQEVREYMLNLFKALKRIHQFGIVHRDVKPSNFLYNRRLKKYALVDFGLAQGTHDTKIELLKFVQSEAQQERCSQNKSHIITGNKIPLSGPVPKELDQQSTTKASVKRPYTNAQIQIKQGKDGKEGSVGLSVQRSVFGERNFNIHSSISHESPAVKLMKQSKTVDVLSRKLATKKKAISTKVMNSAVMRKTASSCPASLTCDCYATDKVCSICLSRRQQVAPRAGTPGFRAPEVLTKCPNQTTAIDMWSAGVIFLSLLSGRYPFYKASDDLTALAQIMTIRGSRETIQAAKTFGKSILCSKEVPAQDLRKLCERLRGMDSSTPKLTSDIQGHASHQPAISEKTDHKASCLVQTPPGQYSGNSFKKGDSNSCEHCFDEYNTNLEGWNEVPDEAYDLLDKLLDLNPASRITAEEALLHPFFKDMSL
Misshapen-like kinase 1, sequence (Q8N4C8 whole entry): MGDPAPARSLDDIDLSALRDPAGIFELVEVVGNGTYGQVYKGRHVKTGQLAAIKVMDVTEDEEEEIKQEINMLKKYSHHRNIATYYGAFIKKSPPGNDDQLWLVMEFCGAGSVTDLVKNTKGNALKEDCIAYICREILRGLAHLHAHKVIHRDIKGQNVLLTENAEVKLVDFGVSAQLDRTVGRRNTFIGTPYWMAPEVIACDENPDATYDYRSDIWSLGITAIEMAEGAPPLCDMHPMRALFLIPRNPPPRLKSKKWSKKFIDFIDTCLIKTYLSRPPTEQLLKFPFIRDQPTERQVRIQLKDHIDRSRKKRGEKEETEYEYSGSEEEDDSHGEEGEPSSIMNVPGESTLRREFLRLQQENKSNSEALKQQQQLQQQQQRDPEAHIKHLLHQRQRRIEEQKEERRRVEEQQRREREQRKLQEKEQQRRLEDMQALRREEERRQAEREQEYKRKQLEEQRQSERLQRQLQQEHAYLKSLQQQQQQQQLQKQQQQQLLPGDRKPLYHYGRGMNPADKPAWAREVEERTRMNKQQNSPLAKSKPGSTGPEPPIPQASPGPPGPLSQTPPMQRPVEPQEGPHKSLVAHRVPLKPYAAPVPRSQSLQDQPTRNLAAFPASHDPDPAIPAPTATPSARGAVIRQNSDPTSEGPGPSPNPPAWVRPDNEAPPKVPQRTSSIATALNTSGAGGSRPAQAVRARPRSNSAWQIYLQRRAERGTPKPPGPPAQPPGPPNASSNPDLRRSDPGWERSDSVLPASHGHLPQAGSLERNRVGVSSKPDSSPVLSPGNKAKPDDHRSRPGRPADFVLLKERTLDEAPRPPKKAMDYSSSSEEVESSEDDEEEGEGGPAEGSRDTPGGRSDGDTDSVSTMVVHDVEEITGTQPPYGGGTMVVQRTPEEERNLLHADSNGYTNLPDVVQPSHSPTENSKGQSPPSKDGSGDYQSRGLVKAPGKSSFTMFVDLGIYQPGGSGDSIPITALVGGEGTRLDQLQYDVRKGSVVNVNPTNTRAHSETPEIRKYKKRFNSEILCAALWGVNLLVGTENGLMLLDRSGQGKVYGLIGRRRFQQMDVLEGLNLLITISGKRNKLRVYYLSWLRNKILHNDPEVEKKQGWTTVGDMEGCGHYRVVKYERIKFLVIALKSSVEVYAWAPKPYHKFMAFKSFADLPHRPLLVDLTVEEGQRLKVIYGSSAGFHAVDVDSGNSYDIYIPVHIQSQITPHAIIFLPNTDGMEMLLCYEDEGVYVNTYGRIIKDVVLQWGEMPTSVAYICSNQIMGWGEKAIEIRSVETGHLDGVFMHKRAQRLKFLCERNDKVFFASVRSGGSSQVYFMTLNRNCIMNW

Usually AC50 stands for the concentration giving half of the maximal activity seen. In the case of `CC(C)CC(=O)NC(c1cccs1)c1ccc2cccnc2c1O` (stereo not drawn), in test [1], the AC50 is 1.75 µM (active).

In general, EC50 refers to the concentration at which the effect is half-maximal. Take `OC(CNCCC1C=Nc2ccccc21)Cn1c2ccc(Cl)cc2c2cc(Cl)ccc21` (stereo not drawn): the results for the concentration at half-maximal activity (AC50) in [2], in [5] and in [6] were 4.42 µM (active), 7.91 µM (active) and 6.52 µM (active), respectively. In addition, the results for the EC50 in test [3] and in test [4] were 5.3 µM (inconclusive) and 4.36 µM (inconclusive), respectively.

What is called Ki is the equilibrium dissociation constant of an inhibitor or competing ligand from its target. A word on the pKi: it is the Ki on a negative log10 scale, so that one unit is a factor of ten. As to `NC1CCC(Nc2nc(Cl)cc(-c3c[nH]c4ncccc34)n2)CC1` (stereo not drawn), in test [7], the Ki was 0.02 µM (active) and the pKi came to 7.7. In addition, in test [8], the inhibition constant Ki was 0.000316 µM (active) and the pKi was determined as 9.5.

The term IC50 denotes the concentration that gives 50% inhibition. Regarding `COc1ccc(C(=O)c2nccc3cc(OC)c(OC)cc23)cc1OC`, the IC50 is 8.21 µM (active) in [9] and 2.47 µM (active) in test [10]. Further, the AC50 in [11] is 6.77 µM (active).
